Source: patent publication US12465050B2, “Compositions comprising a pyridine carboxylate herbicide and protoporphyrinogen oxidase (protox) inhibitor herbicides” (priority 2018, dated 2025)

Assays:
Format in all cases: in vivo
[1] = tested on: Papaver rhoeas (herbicide-resistant poppy); assay: Greenhouse postemergence herbicidal effect on PAPRH-RES
Text: (§1) Greenhouse Trial Methodology—Evaluation of Postemergence Herbicidal Effect
(§2) Seeds of the desired test plant species were planted in a 90:10% v/v (volume/volume) mixture of PRO-MIX® BX (Premier Tech Horticulture, Quakertown, Pa., USA) and PROFILE® GREENS GRADE™ (Profile Products LLC, Buffalo Grove, Ill., USA) planting mixture, which typically has a pH of 5.2 to 6.2 and an organic matter content of at least 50 percent, in plastic pots with a surface area of 103.2 square centimeters (cm^2). In some aspects or embodiments, to help ensure good germination and healthy plants, a fungicide treatment and/or other chemical or physical treatment was applied. The plants were grown for 7-36 days (d) in a greenhouse with an approximate 14-hour (h) photoperiod which was maintained at about 23° C. during the day and 22° C. during the night. Nutrients and water were added on a regular basis and supplemental lighting was provided with overhead metal halide 1000-Watt lamps as necessary. The plants were employed for testing when they reached the second or third true leaf stage.
(§3) Emulsifiable concentrates of each of each pyridine carboxylate herbicide (Compound A or Compound B) were prepared at 100 grams acid equivalent per liter (g ae/L). The emulsifiable concentrates also included a safener, cloquintocet mexyl, at 120 grams active ingredient per liter (g ai/L). An aliquot of each emulsifiable concentrate was placed in a 25 mL glass vial and diluted with an aqueous mixture of 1.25% (v/v) ACTIROB® B esterified rapeseed oil (Bayer Crop Science, Research Triangle Park, N.C., USA) or MSO® Concentrate with LECI-TECH® methylated soybean oil (Loveland Products, Loveland, Colo., USA) to obtain concentrated stock solutions at the highest application rate for each herbicide, based upon a 12 milliliter (mL) application volume at a rate of 187 liters per hectare (L/ha). The concentrated stock solutions were further diluted with an aqueous mixture of 1.25% v/v ACTIROB® B or MSO® Concentrate with LECI-TECH® to obtain stock solutions at reduced application rates for each herbicide. Spray solutions of the herbicide combinations (Compound A or Compound B plus PROTOX inhibitor herbicide) were prepared by adding weighed amounts or aliquots of the PROTOX inhibitor herbicides to the stock solutions of Compound A or Compound B to form 12-mL spray solutions in two-way combinations. […]
(§4) The treated plants and control plants were placed in a greenhouse as described above and watered by sub-irrigation to prevent wash-off of the test compounds. After 20-22 d, the condition of the test plants as compared with that of the control plants was determined visually and scored on a scale of 0 to 100 percent where 0 corresponds to no injury and 100 corresponds to complete kill.

[2] = tested on: Brassica napus (spring rape); assay: Greenhouse postemergence herbicidal effect on BRSNN
Text: as §1, §2
(§5) Emulsifiable concentrates of each of each pyridine carboxylate herbicide (Compound A or Compound B) were prepared at 100 grams acid equivalent per liter (g ae/L). The emulsifiable concentrates also included a safener, cloquintocet mexyl, at 120 grams active ingredient per liter (g ai/L). An aliquot of each emulsifiable concentrate was placed in a 25 mL glass vial and diluted with an aqueous mixture of 1.25% (v/v) ACTIROB® B esterified rapeseed oil (Bayer Crop Science, Research Triangle Park, N.C., USA) or MSO® Concentrate with LECI-TECH® methylated soybean oil (Loveland Products, Loveland, Colo., USA) to obtain concentrated stock solutions at the highest application rate for each herbicide, based upon a 12 milliliter (mL) application volume at a rate of 187 liters per hectare (L/ha). The concentrated stock solutions were further diluted with an aqueous mixture of 1.25% v/v ACTIROB® B or MSO® Concentrate with LECI-TECH® to obtain stock solutions at reduced application rates for each herbicide. Spray solutions of the herbicide combinations (Compound A or Compound B plus PROTOX inhibitor herbicide) were prepared by adding weighed amounts or aliquots of the PROTOX inhibitor herbicides to the stock solutions of Compound A or Compound B to form 12-mL spray solutions in two-way combinations.
(§6) The spray solutions were applied to the plant material with an overhead Mandel track sprayer equipped with 8002E nozzles calibrated to deliver 187 L/ha over an application area of 0.503 square meters (m^2) at a spray height of 18 inches (43 centimeters (cm)) above the average plant canopy. Control plants were sprayed in the same manner with the solvent blank. All pyridine carboxylate herbicide (component a) application rates are given as “g ae/ha” and all PROTOX inhibitor herbicide (component b) application rates are given as “g ai/ha.”
as §4

[3] = tested on: Triticum aestivum (winter wheat); assay: Greenhouse postemergence phytotoxicity on crop TRZAW
Text: as §1, §2, §3, §4

[4] = tested on: Cyperus esculentus (nutsedge); assay: Greenhouse postemergence herbicidal effect on CYPES
Text: as §1, §2
(§7) Emulsifiable concentrates of each of each pyridine carboxylate herbicide (Compound A or Compound B) were prepared at 100 grams acid equivalent per liter (g ae/L). The emulsifiable concentrates also included a safener, cloquintocet mexyl, at 120 grams active ingredient per liter (g ai/L). […]
as §4

[5] = tested on: Matricaria inodora (scentless chamomile); assay: Greenhouse postemergence herbicidal effect on MATIN
Text: as §1, §2, §3, §4

[6] = tested on: Papaver rhoeas (common poppy); assay: Greenhouse postemergence herbicidal effect on PAPRH
Text: as §1, §2, §3, §4

[7] = tested on: Viola tricolor (wild pansy); assay: Greenhouse postemergence herbicidal effect on VIOTR
Text: as §1, §2, §5, §6, §4

[8] = tested on: Anthemis arvensis (corn chamomile); assay: Greenhouse postemergence herbicidal effect on ANTAR
Text: as §1, §2, §3, §4

[9] = tested on: Rumex obtusifolius (broad-leaf dock); assay: Greenhouse postemergence herbicidal effect on RUMOB
Text: as §1, §2, §5, §6, §4

[10] = tested on: Viola arvensis (field violet); assay: Greenhouse postemergence herbicidal effect on VIOAR
Text: as §1, §2, §3, §4

[11] = tested on: Echinochloa crus-galli (barnyard grass); assay: Greenhouse postemergence herbicidal effect on ECHCG
Text: as §1, §2, §7, §4

[12] = tested on: Sinapis arvensis (wild mustard); assay: Greenhouse postemergence herbicidal effect on SINAR
Text: as §1, §2, §5, §6, §4

Kochia scoparia (kochia) = assay: Greenhouse postemergence herbicidal effect on KCHSC
Text: as §1, §2, §5, §6, §4

Avena fatua (wild oat) = assay: Greenhouse postemergence herbicidal effect on AVEFA
Text: as §1, §2, §7, §4

Zea mays (maize) = assay: Greenhouse postemergence phytotoxicity on crop ZEAMX
Text: as §1, §2, §7, §4

[13] = tested on: Amaranthus retroflexus (pigweed); assay: Greenhouse postemergence herbicidal effect on AMARE
Text: as §1, §2, §5, §6, §4

[14] = Compound A 7.5, Oxyfluorfen 0 g/ha
[15] = Compound A 10, Oxyfluorfen 0 g/ha
[16] = Compound A 15, Oxyfluorfen 0 g/ha
[17] = Compound A 7.5, Pyraclonil 0 g/ha
[18] = Compound A 7.5, Saflufenacil 0 g/ha
[19] = Compound A 10, Pyraclonil 0 g/ha
[20] = Compound A 10, Saflufenacil 0 g/ha
[21] = Compound A 7.5, Pyraflufen-ethyl 0 g/ha
[22] = Compound A 10, Pyraflufen-ethyl 0 g/ha

N#CCOC(=O)c1nc(-c2ccc3cc[nH]c3c2F)c(F)c(N)c1Cl [Compound A, cyanomethyl 4-amino-3-chloro-5-fluoro-6-(7-fluoro-1H-indol-6-yl)pyridine-2-carboxylate]
% visual injury, Obs [1, 14]: 96% | % visual injury, Obs [1, 15]: 98% | % visual injury, Obs [1, 16]: 100% | % visual injury, Obs ([2]; Compound A 7.5, Bifenox 0 g/ha): 23% | % visual injury, Obs [2, 17]: 55% | % visual injury, Obs [2, 18]: 65% | % visual injury, Obs ([2]; Compound A 10, Bifenox 0 g/ha): 45% | % visual injury, Obs [2, 19]: 60% | % visual injury, Obs [2, 20]: 65% | % visual injury, Obs [3, 14]: 0% | % visual injury, Obs [3, 15]: 0% | % visual injury, Obs [3, 16]: 0% | % visual injury, Obs [4, 18]: 30% | % visual injury, Obs [4, 20]: 8% | % visual injury, Obs [5, 14]: 55% | % visual injury, Obs [5, 15]: 60% | % visual injury, Obs [5, 16]: 83% | % visual injury, Obs [6, 14]: 100% | % visual injury, Obs [6, 15]: 99% | % visual injury, Obs [6, 16]: 100% | % visual injury, Obs ([7]; Compound A 7.5, Bifenox 0 g/ha): 45% | % visual injury, Obs [7, 14]: 13% | % visual injury, Obs ([7]; Compound A 10, Bifenox 0 g/ha): 15% | % visual injury, Obs [7, 15]: 15% | % visual injury, Obs [7, 16]: 15% | % visual injury, Obs [8, 14]: 68% | % visual injury, Obs [8, 15]: 70% | % visual injury, Obs [8, 16]: 88% | % visual injury, Obs ([9]; Compound A 7.5, Bifenox 0 g/ha): 13% | % visual injury, Obs [9, 18]: 20% | % visual injury, Obs ([9]; Compound A 10, Bifenox 0 g/ha): 8% | % visual injury, Obs [9, 20]: 13% | % visual injury, Obs [10, 14]: 10% | % visual injury, Obs [10, 15]: 13% | % visual injury, Obs [10, 16]: 10% | % visual injury, Obs ([11]; Compound A 7.5, Bifenox 0 g/ha): 80% | % visual injury, Obs ([11]; Compound A 10, Bifenox 0 g/ha): 88% | % visual injury, Obs [12, 14]: 88% | % visual injury, Obs [12, 17]: 88% | % visual injury, Obs [12, 21]: 83% | % visual injury, Obs [12, 15]: 91% | % visual injury, Obs [12, 19]: 92% | % visual injury, Obs [12, 22]: 88% | % visual injury, Obs [12, 16]: 91% | % visual injury, Obs (Kochia scoparia (kochia); Compound A 7.5, Bifenox 0 g/ha): 63% | % visual injury, Obs (Kochia scoparia (kochia); Compound A 7.5, Carfentrazone-ethyl 0 g/ha): 50% | % visual injury, Obs (Kochia scoparia (kochia); [14]): 63% | % visual injury, Obs (Kochia scoparia (kochia); [17]): 50% | % visual injury, Obs (Kochia scoparia (kochia); [21]): 70% | % visual injury, Obs (Kochia scoparia (kochia); Compound A 10, Bifenox 0 g/ha): 70% | % visual injury, Obs (Kochia scoparia (kochia); Compound A 10, Carfentrazone-ethyl 0 g/ha): 58% | % visual injury, Obs (Kochia scoparia (kochia); [15]): 65% | % visual injury, Obs (Kochia scoparia (kochia); [19]): 58% | % visual injury, Obs (Kochia scoparia (kochia); [22]): 70% | % visual injury, Obs (Kochia scoparia (kochia); [16]): 63% | % visual injury, Obs (Avena fatua (wild oat); Compound A 7.5, Bifenox 0 g/ha): 0% | % visual injury, Obs (Avena fatua (wild oat); Compound A 10, Bifenox 0 g/ha): 0% | % visual injury, Obs (Zea mays (maize); [18]): 0% | % visual injury, Obs (Zea mays (maize); [20]): 0% | % visual injury, Obs [13, 21]: 90% | % visual injury, Obs [13, 18]: 88% | % visual injury, Obs [13, 22]: 85% | % visual injury, Obs [13, 20]: 88%
